In publication PMC5352749, “Novel insights into biosynthesis and uptake of rhamnolipids and their precursors” (Applied Microbiology and Biotechnology, 2016):

Experiments:
RhlB = target: T1, RhlB (Pseudomonas aeruginosa, UniProt Q9HYD1); experiment: HPLC-UV of mono-rhamnolipids formed by recombinant P. putida fed HAA; type: cell-based; conditions: HAA-containing conditioned LB medium (congener mixture, C10-C10 quantified); 30 °C, 24 h; cellular dTDP-L-rhamnose as donor
T1 construct: full-length untagged gene in pVLT33 (native RBS), expressed alone in P. putida KT2440

RhlC = target: T2, RhlC (Pseudomonas aeruginosa, UniProt Q9I4K5); experiment: HPLC-UV of di-rhamnolipids formed by recombinant P. putida fed mono-rhamnolipids; type: cell-based; conditions: mono-rhamnolipid conditioned LB medium (congener mixture, C10-C10 predominant and quantified); 30 °C, 24 h; cellular dTDP-L-rhamnose as donor
T2 construct: full-length untagged gene in pVLT33 (native RBS), expressed alone in P. putida KT2440
T2 sequence (Q9I4K5 entry or part of it): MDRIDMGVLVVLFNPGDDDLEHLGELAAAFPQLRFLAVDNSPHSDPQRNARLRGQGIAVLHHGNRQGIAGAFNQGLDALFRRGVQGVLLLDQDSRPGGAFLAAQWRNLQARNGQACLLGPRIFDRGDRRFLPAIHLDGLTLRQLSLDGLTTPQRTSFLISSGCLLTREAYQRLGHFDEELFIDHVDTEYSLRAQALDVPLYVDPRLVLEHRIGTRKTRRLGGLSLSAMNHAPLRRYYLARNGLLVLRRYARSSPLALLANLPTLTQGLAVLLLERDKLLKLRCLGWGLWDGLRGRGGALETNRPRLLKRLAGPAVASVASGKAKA

T1 sequence (Q9HYD1 entry or part of it): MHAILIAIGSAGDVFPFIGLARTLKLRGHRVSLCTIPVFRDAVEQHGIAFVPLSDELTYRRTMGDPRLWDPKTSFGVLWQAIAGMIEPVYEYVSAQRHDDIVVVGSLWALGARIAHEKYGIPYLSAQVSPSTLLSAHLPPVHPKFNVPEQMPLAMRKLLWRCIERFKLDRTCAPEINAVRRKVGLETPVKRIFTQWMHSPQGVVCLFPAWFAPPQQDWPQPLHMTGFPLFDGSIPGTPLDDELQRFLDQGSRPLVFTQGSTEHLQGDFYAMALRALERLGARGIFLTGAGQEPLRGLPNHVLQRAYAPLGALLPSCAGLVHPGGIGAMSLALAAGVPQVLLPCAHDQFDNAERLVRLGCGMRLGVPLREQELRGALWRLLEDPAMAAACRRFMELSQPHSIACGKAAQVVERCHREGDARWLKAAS

SMILES | HPLC-UV of mono-rhamnolipids formed by recombinant P. putida fed HAA (RhlB) | HPLC-UV of di-rhamnolipids formed by recombinant P. putida fed mono-rhamnolipids (RhlC)
CCCCCCCC(O)CC(=O)OC(CCCCCCC)CC(=O)O (centres unmarked) [C10-C10 (HAA)] | HAAs synthesized by P. putida and provided in the form of the conditioned medium serve | –
CCCCCCC[C@H](CC(=O)O)OC(=O)C[C@@H](CCCCCCC)O[C@@H]1O[C@@H](C)[C@H](O)[C@@H](O)[C@H]1O [Rha-C10-C10] | – | extracellularly provided mono-rhamnolipids were converted to di-rhamnolipids by RhlC in recombinant P. putida
